The source of these data is PubChem BioAssay (NCI).

Each structure is given as a SMILES string.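 In this assay, cells in 96-well plates receive the compound at five concentrations for 48 hours. Endpoints are linearly interpolated between the surrounding concentrations. GI50 is the concentration that inhibits growth by half. Definition used: TGI = concentration required for complete inhibition of growth.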

Some test systems named below: DLD-1 colon; DMS 114 small cell lung; EKVX NSCLC; HOP-62 NSCLC; LXFL 529 NSCLC; M14 melanoma; M19-MEL melanoma; NCI-H522 lung; OVCAR-5 ovarian; SF-268 CNS; MDA-MB-231 breast; RPMI-8226 leukemia.
Test in all cases: NCI tumour cell line growth inhibition, 48 h

In the case of `COc1ccccc1N=Nc1c(-c2ccccc2)nn(C(=O)CC(=O)Nc2cccc(C)c2)c1-c1ccccc1`, the TGI in the assay on DLD-1 colon is greater than 100 µM; in the assay with DMS 114 small cell lung, 77.1 µM; in the assay on EKVX NSCLC, greater than 100 µM; in the assay with HOP-62 NSCLC it was greater than 100 µM; with LXFL 529 NSCLC, greater than 100 µM; in the assay with M14 melanoma, greater than 100 µM. In addition, the TGI in the assay on M19-MEL melanoma, in the assay with NCI-H522 lung, with OVCAR-5 ovarian and in the assay on SF-268 CNS was greater than 100 µM in each case.

With `O=S(=O)(O)O`, the TGI in the assay on DLD-1 colon is greater than 3000 µM; with EKVX NSCLC it was 2470 µM; in the assay on HOP-62 NSCLC it was 1070 µM; in the assay with M14 melanoma, 1580 µM; with MDA-MB-231 breast, greater than 1900 µM; in the assay with NCI-H522 lung, 1770 µM. Also, the TGI with OVCAR-5 ovarian worked out at 1700 µM; with RPMI-8226 leukemia it was 2500 µM; with SF-268 CNS it was 1980 µM.

With `CCOC(=O)NC(=O)c1cn(CCN2CCN(C(=O)CNC(=O)CNC(=O)Cn3cc(C(=O)NC(=O)OCC)c(=O)[nH]c3=O)CC2)c(=O)[nH]c1=O`, the TGI in the assay with DLD-1 colon, in the assay on DMS 114 small cell lung, with HOP-62 NSCLC, with LXFL 529 NSCLC, in the assay with M14 melanoma and in the assay with M19-MEL melanoma was greater than 100 µM in each case. Further, the TGI in the assay on NCI-H522 lung, with OVCAR-5 ovarian and in the assay on SF-268 CNS was greater than 100 µM each time.

`Cc1ccc(S(=O)(=O)N/N=C(\c2nc3ccc(Cl)cc3[nH]c2=O)C(O)c2ccco2)cc1` (stereo not given): the TGI with DLD-1 colon, with DMS 114 small cell lung, with EKVX NSCLC, in the assay with LXFL 529 NSCLC, in the assay on M14 melanoma and in the assay with M19-MEL melanoma was greater than 100 µM throughout. The TGI in the assay on OVCAR-5 ovarian and with SF-268 CNS was greater than 100 µM in each case.

In the case of `C=CCn1c(=S)sc2c(C(=O)OCC)c3c(C)cc(C)cn3c2c1=O`, the TGI with DLD-1 colon, in the assay with EKVX NSCLC, in the assay with HOP-62 NSCLC, with LXFL 529 NSCLC, in the assay on M14 melanoma and in the assay with M19-MEL melanoma was greater than 100 µM in each case. The TGI in the assay on NCI-H522 lung, in the assay on OVCAR-5 ovarian, in the assay with RPMI-8226 leukemia and in the assay on SF-268 CNS was greater than 100 µM in each case.

Turning to `C/C(CC(=O)Nc1cccc(Cl)c1C)=N\NC(N)=S`, the TGI with DLD-1 colon, in the assay on EKVX NSCLC, in the assay on HOP-62 NSCLC, in the assay with LXFL 529 NSCLC, in the assay with M14 melanoma and in the assay with M19-MEL melanoma was greater than 100 µM throughout. The TGI in the assay with NCI-H522 lung, in the assay with OVCAR-5 ovarian, with RPMI-8226 leukemia and in the assay with SF-268 CNS was greater than 100 µM each time.

With `Cc1ccc(/C=C(\C#N)c2cc3ccccc3n2C)cc1`, the GI50 was 0.58 µM in the assay with EKVX NSCLC; 0.474 µM with HOP-62 NSCLC; 0.268 µM in the assay with M14 melanoma; 0.671 µM in the assay on MDA-MB-231 breast; 0.269 µM in the assay with NCI-H522 lung; 0.632 µM in the assay with OVCAR-5 ovarian. The GI50 with RPMI-8226 leukemia is 0.38 µM; with SF-268 CNS, 8.27 µM. The TGI in the assay with EKVX NSCLC is greater than 100 µM; in the assay with HOP-62 NSCLC, greater than 100 µM; in the assay on M14 melanoma, greater than 100 µM; with MDA-MB-231 breast, greater than 100 µM; in the assay with NCI-H522 lung, 16.2 µM; in the assay on OVCAR-5 ovarian, greater than 100 µM. For the same compound, the TGI in the assay with RPMI-8226 leukemia and in the assay with SF-268 CNS was greater than 100 µM throughout.

As to `COc1ccc(/C=C(/c2ccccc2)[N+](=O)[O-])c(OC)c1`, the GI50 with EKVX NSCLC is 1.73 µM; in the assay with HOP-62 NSCLC, 2.42 µM; with M14 melanoma it was 1.48 µM; in the assay on MDA-MB-231 breast, 2 µM; in the assay on NCI-H522 lung it was 1.56 µM; with OVCAR-5 ovarian, 1.92 µM. For the same compound, the GI50 with RPMI-8226 leukemia is 0.372 µM; in the assay with SF-268 CNS, 1.65 µM. For the same compound, the TGI in the assay on EKVX NSCLC amounted to 3.98 µM; in the assay with HOP-62 NSCLC, 4.77 µM; with M14 melanoma, 3.51 µM; in the assay on MDA-MB-231 breast, 4.16 µM; in the assay on NCI-H522 lung, 4.02 µM; in the assay with OVCAR-5 ovarian, 3.74 µM. For the same compound, the TGI with RPMI-8226 leukemia amounted to 1.64 µM; with SF-268 CNS, 3.14 µM.

Consider `CC(C)/C=C1\CCC(CN2CCOCC2)C1=O` (stereo not given), for which the TGI was 8.86 µM with DLD-1 colon; 36.8 µM in the assay on EKVX NSCLC; greater than 100 µM in the assay with HOP-62 NSCLC; 8.24 µM in the assay on LXFL 529 NSCLC; 26.1 µM in the assay with M14 melanoma; greater than 57.2 µM in the assay with M19-MEL melanoma. Besides, the TGI was 3.8 µM with NCI-H522 lung, 39.4 µM in the assay with OVCAR-5 ovarian, 4.47 µM in the assay with RPMI-8226 leukemia and 52.5 µM in the assay with SF-268 CNS.

With `Oc1c(C(Nc2ccccc2Br)c2ccccc2)ccc2cccnc12` (stereo not given), the GI50 is 2.48 µM in the assay on EKVX NSCLC; 2.28 µM in the assay with HOP-62 NSCLC; 2.3 µM in the assay with M14 melanoma; 3.9 µM with MDA-MB-231 breast; 2.39 µM with NCI-H522 lung; 5.34 µM in the assay on OVCAR-5 ovarian. Further, the GI50 in the assay with RPMI-8226 leukemia was 6.28 µM; in the assay on SF-268 CNS it was 1.7 µM. Further, the TGI with EKVX NSCLC was greater than 100 µM; in the assay with HOP-62 NSCLC, 19.7 µM; in the assay with M14 melanoma, 8.47 µM; in the assay on MDA-MB-231 breast it was 58.9 µM; with NCI-H522 lung, 16.6 µM; in the assay on OVCAR-5 ovarian, 51.7 µM. For the same compound, the TGI in the assay on RPMI-8226 leukemia is greater than 100 µM; in the assay with SF-268 CNS, 17.3 µM.

Regarding `COc1ccccc1/C=C1\COc2ccc(-c3ccccc3)cc2C1=O`, the GI50 in the assay on EKVX NSCLC was 5.59 µM; with HOP-62 NSCLC, 7.6 µM; in the assay on M14 melanoma, 4 µM; in the assay on MDA-MB-231 breast it was 3.66 µM; in the assay with NCI-H522 lung it was 3.1 µM; in the assay with OVCAR-5 ovarian, 5.29 µM. Besides, the GI50 in the assay on RPMI-8226 leukemia was 2.83 µM; in the assay on SF-268 CNS, 3.14 µM. The TGI with EKVX NSCLC was greater than 100 µM; in the assay with HOP-62 NSCLC, greater than 100 µM; with M14 melanoma, 32.2 µM; in the assay on MDA-MB-231 breast, 17.7 µM; in the assay with NCI-H522 lung, greater than 100 µM; with OVCAR-5 ovarian it was 21.1 µM. Further, the TGI is greater than 100 µM in the assay on RPMI-8226 leukemia and 10.4 µM in the assay with SF-268 CNS.
